Experimental data reported in patent publication US20240216519A1, “SMALL HYDROPHOBIC PROTEIN DRUG CONJUGATES AND USES THEREOF” (priority 2021, published 2024).
Where “and” joins values, the source holds several entries; their conditions need not be identical. Identical values can stand only once. Where no end group is shown, it is not given here. TAMRA = carboxytetramethyl rhodamine on alpha-amino group of Met1

Tests used:
C57BL/6J mice [1] = test: Acute food intake in lean mice, s.c. (Example 10); type: in vivo, mouse
Protocol: Female C57BL/6J mice were purchased from Charles Rivers. One week before study initiation the mice were single housed with free access to food and water. […] Thirty minutes prior peptide injection, all mice were administered subcutaneously with DDP-4 inhibitor Valine-pyrrolidide (1.5 mg/mouse). Food intake was measured after 1, 2, 4 and 14 hours (FIG. 14A-D).
Results shown are combined data from five studies with an identical study design as described above. Between each study mice had at least one week washout period.

human GLP-1 receptor = human GLP-1 receptor (Homo sapiens, UniProt P43220); test: cAMP accumulation, human GLP-1 receptor; type: cell-based; parameters: expressed in transfected cells; host or cells: COS-7 (methods)
Sequence of human GLP-1 receptor (P43220 24-463): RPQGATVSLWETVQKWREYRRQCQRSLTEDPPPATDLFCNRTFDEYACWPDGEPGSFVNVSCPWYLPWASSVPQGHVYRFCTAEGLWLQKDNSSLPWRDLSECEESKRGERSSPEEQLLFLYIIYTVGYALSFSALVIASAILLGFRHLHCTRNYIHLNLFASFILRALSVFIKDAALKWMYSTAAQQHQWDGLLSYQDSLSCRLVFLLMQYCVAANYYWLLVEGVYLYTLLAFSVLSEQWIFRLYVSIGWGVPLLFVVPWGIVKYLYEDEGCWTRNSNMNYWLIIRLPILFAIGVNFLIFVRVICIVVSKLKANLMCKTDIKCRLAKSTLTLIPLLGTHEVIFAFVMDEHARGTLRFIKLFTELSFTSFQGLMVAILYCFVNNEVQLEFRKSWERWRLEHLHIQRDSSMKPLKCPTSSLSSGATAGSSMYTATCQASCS
Protocol: (§1) Transient transfection of COS-7 cells was performed using calcium phosphate precipitation method. Briefly, a total of 10 ug of receptor DNA was diluted in TE-buffer ([…] Tris-HCl and 1 mM EDTA, pH 7.5) to a total of 105 ul, to which 15 ul of 2 M CaCl2) was added. The DNA-calcium co-precipitation was gently and slowly added to 120 ul 2× HEPES-buffered saline (HBS), and the transfection mixture was incubated at room temperature for 45 min. The total transfection mixture was added to the cells and incubated for 5 hours at 37° C. and 10% CO2, with the addition of 75 ul chloroquine to the growth medium. After 5 hours, the transfection medium was removed and replaced with regular growth medium. The cells were used in experiment 40-48 h after termination of the transfection procedure.
(§2) For the cAMP assay, the COS-7 cells were seeded into 96-well plates (35.000 cells/well) and washed with HBS prior to incubation with 100 ul […] isobutylmethylzanthine (IBMX) for 30 min at 37° C. […] After incubation, the medium was removed, and cells were treated according to the protocol ‘three reagent addition’ procedure for the HitHunter cAMP XS+Assay by DiscoverX, USA.

CaCo-2 cells = test: Transport study: diffusion of FITCs through tight monolayer of Caco2 cells; type: cell-based; settings: basal addition of FITCs together with ligand
Protocol: CaCo-2 cells were seeded in transwell chambers (basal) and two times TEER was measured until day 17-21 post seeding. TEER experiments were performed afte 17-21 days post seeding in wells with higher TEER as 1000 ohms (proof of a tight cell monolatyer. Caco2 cells were infected basal with mumps virus (MuV Jerryl Lynn strain, WT or SH-protein deletion virus) at a multiplicity of infection of 3. TEER was measured continuously performing CellZcope experiments.
Transport studies were performed until day 17-21 post seeding as described above for the Cellzcope experiments. Ligand or control induced changes in the tightness of the cell monolayer was measured passively by the basal addition of the fluorescence dye (FITCs) together with the ligands or controls. Increase of FITCs apical was detected by collecting samples after different time points.

[2] = tested on: Diet induced obese C57BL/6NTac male mice; test: Acute food intake in diet induced obese mice, s.c. (Example 11); type: in vivo, mouse; settings: 15 nmol/kg s.c.
Protocol: Diet induced obese C57BL/6NTac male mice were purchased from Taconic and continued on a high fat high sucrose diet with free access to water. One week after arrival, animals were double or single housed. […] Thirty minutes prior peptide injection, all mice were administered subcutaneously with DDP-4 inhibitor Valine-pyrrolidide (3 mg/mouse). Food intake was measured after 1, 2, 4 and 14 hours (FIG. 15A-D).

C57BL/6J mice [3] = test: Food intake of fasted C57BL/6J mice after i.p. injection (Example 8); type: in vivo, mouse; settings: 200 nmol/kg i.p.
Protocol: Female C57BL/6J mice were purchased from Charles Rivers. […] The animals were housed in individual cages, with access to food and water, and food intake was measured 1 and 2 hours after injection.

[4] = Plasma and CSF concentrations after injection into vena cava (RIA GLP-1 assay); type: in vivo; settings: rat
Protocol: Male Sprague Dawley rats were purchased from Charles Rivers. Animals were anesthetized by hypnorm/dormicum, and restrained in a stereotactic instrument. […] Blood samples were collected prior to the injection of test compounds and straight after CSF aspiration.
The assay buffer was 100 mM Tris buffer with pH 8.5 containing 1% (wt/vol) human serum albumin, 0.01 mM valine-pyrrolidide and 500 KIE aprotinin (final concentrations). […] Plasma and CSF concentrations were measured after dilution in assay buffer. Free and bound moieties were separated with plasma-coated charcoal.

rat GLP-1 receptor = biological target: T1, rat GLP-1 receptor (Rattus norvegicus, UniProt P32301); test: cAMP accumulation, rat GLP-1 receptor; type: cell-based; settings: rat GLP-1R-expressing HEK293 cells; read-out: EC50, intracellular cAMP accumulation
T1 construct: expressed in transfected cells; host or cells: COS-7 (methods)
T1 sequence (P32301 22-463): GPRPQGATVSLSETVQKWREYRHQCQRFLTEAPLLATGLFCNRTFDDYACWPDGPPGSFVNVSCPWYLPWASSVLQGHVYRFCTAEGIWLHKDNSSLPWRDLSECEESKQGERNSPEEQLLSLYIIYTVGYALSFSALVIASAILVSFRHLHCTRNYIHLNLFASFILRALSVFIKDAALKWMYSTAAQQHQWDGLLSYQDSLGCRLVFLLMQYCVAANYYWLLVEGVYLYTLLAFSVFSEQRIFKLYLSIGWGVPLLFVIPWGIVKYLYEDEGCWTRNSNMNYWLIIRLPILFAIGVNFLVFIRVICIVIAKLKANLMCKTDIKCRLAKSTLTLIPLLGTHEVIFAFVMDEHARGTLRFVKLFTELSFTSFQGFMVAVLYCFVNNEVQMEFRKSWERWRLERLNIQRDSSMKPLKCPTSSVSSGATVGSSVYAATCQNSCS
Protocol: as §1, §2

[5] = tested on: choroid plexus of the GPR125 KO mouse brain; test: TAMRA labelled SH-protein binding to cryo-sections, GPR125 KO mouse brain; settings: 1 h incubation
Protocol: (§3) SH protein (SEQ ID NO: 74) with a N-terminal carboxytetramethyl rhodamine attached through its carboxyl-group to the N-terminal alpha amino-group of the first Methionine was used for making the TAMRA labelled SH-protein (SEQ ID NO: 129). A mixture of 5-(and-6)-Carboxytetramethylrhodamine was used.
(§4) A whole body perfusion was performed of mice and brains were dissected and frozen at −80C. Cryo-sections of mouse brains (WT and GPR125 KO mouse (Spina et al. 2021)) were generated and the TAMRA-labelled SH-protein was incubated on the cryosections at different concentrations or buffer. Afterwards the sections were mounted with mounting media containing a DAPI stain.

[6] = tested on: choroid plexus of the WT mouse brain; test: TAMRA labelled SH-protein binding to cryo-sections, WT mouse brain; settings: 1 h incubation
Protocol: as §3, §4

[7] = CSF 10 min after i.v. injection

For `CC[C@H](C)[C@H](NC(=O)[C@H](C)NC(=O)[C@@H]1CCCN1)C(=O)N[C@@H](CCC(N)=O)C(=O)N1CCC[C@H]1C(=O)N1CCC[C@H]1C(=O)N[C@@H](CC(C)C)C(=O)N[C@@H](Cc1ccc(O)cc1)C(=O)N[C@@H](CC(C)C)C(=O)N[C@H](C(=O)NCCOCCOCC(=O)NCCCC[C@H](NC(=O)[C@H](C)NC(=O)[C@H](C)NC(=O)[C@H](CCC(N)=O)NC(=O)CNC(=O)[C@H](CCC(=O)O)NC(=O)[C@H](CC(C)C)NC(=O)[C@H](Cc1ccc(O)cc1)NC(=O)[C@H](CO)NC(=O)[C@H](CO)NC(=O)[C@@H](NC(=O)[C@H](CC(=O)O)NC(=O)[C@H](CO)NC(=O)[C@@H](NC(=O)[C@H](Cc1ccccc1)NC(=O)[C@@H](NC(=O)CNC(=O)[C@H](CCC(=O)O)NC(=O)[C@H](C)NC(=O)[C@@H](N)Cc1c[nH]cn1)[C@@H](C)O)[C@@H](C)O)C(C)C)C(=O)N[C@@H](CCC(=O)O)C(=O)N[C@@H](Cc1ccccc1)C(=O)N[C@H](C(=O)N[C@@H](C)C(=O)N[C@@H](Cc1c[nH]c2ccccc12)C(=O)N[C@@H](CC(C)C)C(=O)N[C@H](C(=O)N[C@@H](CCCNC(=N)N)C(=O)NCC(=O)N[C@@H](CCCNC(=N)N)C(N)=O)C(C)C)[C@@H](C)CC)[C@@H](C)O` [SH(2-11)-GLP-1(7-36)], the “food intake compared to vehicle” value (C57BL/6J mice [1]; 15 nmol/kg s.c., after 1 hour) was “decreased food intake significantly”, the “food intake compared to vehicle” value (C57BL/6J mice [1]; 15 nmol/kg s.c., after 2 hours) was “decreased food intake significantly” and the “food intake compared to vehicle” value (C57BL/6J mice [1]; 15 nmol/kg s.c., after 4 hours) was “decreased food intake significantly”. For the same compound, the “food intake compared to vehicle” value (C57BL/6J mice [1]; 30 nmol/kg s.c., after 1 hour) was “decreased their food intake significantly”, the “food intake compared to vehicle” value (C57BL/6J mice [1]; 30 nmol/kg s.c., after 2 hours) was “decreased their food intake significantly” and the “food intake compared to vehicle” value (C57BL/6J mice [1]; 30 nmol/kg s.c., after 4 hours) was “still present”. The “food intake compared to vehicle” value (C57BL/6J mice [1]; 30 nmol/kg s.c., after 14 hours) was “significant lower food intake”, the EC50 (human GLP-1 receptor) was 0.13 nM and the “integrity of tight monolayer of CaCO-2 cells (uptake of fluorescent dye FITCs)” value (CaCo-2 cells) was “decreased integrity”. For the same compound, the “food intake compared to vehicle” value ([2]; after 1 hour, conjugate also vs GLP-1(7-36)) was “decreased food intake significantly”, the “food intake compared to vehicle” value ([2]; after 2 hours, conjugate also vs GLP-1(7-36)) was “decreased food intake significantly” and the “food intake compared to vehicle” value ([2]; after 4 hours, conjugate also vs GLP-1(7-36)) was “decreased food intake significantly”. For the same compound, the “food intake compared to vehicle” value ([2]; after 14 hours) was “significantly decreased”, the “food intake compared to vehicle” value (C57BL/6J mice [3]; 1 hour after injection) was “decreases the food intake significantly” and the “food intake compared to vehicle” value (C57BL/6J mice [3]; 2 hours after injection) was “decreases the food intake significantly”. For the same compound, the level at time molar at 10 min ([4]; male, Sprague Dawley, cerebrospinal fluid (CSF), iv, CSF 10 minutes after injection into vena cava, SH(2-11)-GLP-1 500, GLP-1 50 (injection), read-out: CSF conc) was 277 µM, the “detectable in CSF by RIA GLP-1 assay” value ([4]; 10 min after i.v. injection) was “detectable” and the “amount detectable within the CSF, of the total injected concentration” value [4, 7] was “approximately 55%”. The “concentrated more in the CSF compared to GLP-1(7-36)” value [4, 7] was 10 times, the “Ratio (CSF conc to injection conc)” value ([4]; CSF 10 minutes after injection) was 0.554 and the “higher presence within the CSF” value ([4]; compared to GLP-1(7-36)) was 10 fold. For the same compound, the EC50 (rat GLP-1 receptor) was 0.13 nM.

For “TAMRA labelled SH-protein: SH protein (SEQ ID NO: 74) with N-terminal carboxytetramethyl rhodamine on the alpha amino-group of the first Methionine ({TAMRA}-MPAIQPPLYLTFLLLILLYLIITLYVWIILTVTYKTAVRHAALYQRSFFHWSFDHSL)”, the “concentrations at which binding to the choroid plexus is seen (only at higher concentrations)” value [5] was 22 µM and 11 µM and the “concentration at which binding to the choroid plexus is still seen” value [6] was 2,25 UM.
